Laboratory results published in article PMC11432087, “Hydrogen Sulfide-Releasing Carbonic Anhydrase Inhibitors Effectively Suppress Cancer Cell Growth” (International Journal of Molecular Sciences, 2024).
Where two headings read alike, the source gives them in different places. Values belong to the compound of their own block, whether it stands above or below them.

Experiments:
[1] = system: HCT-116; assay: Cell cycle analysis by DNA flow cytometry, HCT-116; assay type: cell-based, human; conditions: HCT-116, 24 h at IC50 concentration
Description: (§1) Following treatment, cells were washed twice with ice-cold phosphate-buffered saline (PBS). Subsequently, the treated cells were harvested through centrifugation, fixed in ice-cold 70% (v/v) ethanol, washed with PBS, re-suspended in 100 μg/mL RNase, stained with 40 μg/mL propidium iodide (PI), and subjected to flow cytometry analysis using FACS Calibur (Becton Dickinson, Franklin Lakes, NJ, USA). The cell cycle distributions were calculated using CellQuest software 5.1 (Becton Dickinson).

[2] = system: A549; assay: Cell cycle analysis by DNA flow cytometry, A549; assay type: cell-based, human; conditions: A549, 24 h at IC50 concentration
Description: as §1

[3] = system: HCT-116; assay: MTT antiproliferative assay, HCT-116 (normoxia and CoCl2-induced hypoxia); assay type: cell-based, human; conditions: HCT-116; for IC50: Homo sapiens, MTT, 72 h
Description: (§2) These cell lines were cultured as monolayers in Dulbecco’s Modified Eagle’s Medium (DMEM) supplemented with 10% FBS, 2 mM l-glutamine, 100 U/mL penicillin, and 100 µg/mL streptomycin sulfate. […] The cells were sub-cultured using trypsin/EDTA solution, counted with a hemocytometer, and plated on 96-well plates (5000 cells/well), allowing them to form a semi-confluent monolayer overnight. […] DMSO (100 µL/well) was then added to dissolve the formazan crystals with shaking for 10 min, after which the absorb absorbance was read at 590 nm against no-cell blanks using a FLuo Star Optima microplate reader (BMG technologies, Ortenberg, Germany). Cell proliferation was calculated by comparing the OD values of the DMSO control wells with those of the samples, represented as % proliferation relative to the control.

[4] = system: hCA XII; assay: Stopped-flow CO2 hydrase inhibition assay, hCA XII; assay type: biochemical, human; conditions: ratio of KIs
Description: (§3) An Applied Photophysics stopped-flow instrument (Applied Photophysics Ltd, Leatherhead, UK) was used for assaying the CA-catalyzed CO2 hydration activity. Phenol red (at a concentration of 0.2 mM) was used as an indicator, working at the absorbance maximum of 557 nm, with 20 mM Hepes (pH 7.5) as a buffer and 20 mM Na2SO4 for maintaining constant the ionic strength, following the initial rates of the CA-catalyzed CO2 hydration reaction for a period of 10−100 s. The CO2 concentrations ranged from 1.7 to 17 mM for the determination of the kinetic parameters and inhibition constants. For each inhibitor, at least six traces of the initial 5−10% of the reaction were used for determining the initial velocity. The uncatalyzed rates were determined in the same manner and subtracted from the total observed rates. Stock solutions of inhibitor (0.1 mM) were prepared in distilled−deionized water and dilutions up to 0.01 nM were made thereafter with the assay buffer. Inhibitor and enzyme solutions were preincubated together for 15 min at room temperature before the assay to allow for the formation of the E−I complex. The inhibition constants were obtained by nonlinear least-squares methods using Prism 7 (GraphPad Software, La Jolla, CA, USA) and the Cheng−Prusoff equation and represent the mean of at least three different determinations. The enzyme concentrations were in the range of 3–11 nM. All hCA isoforms were recombinant ones obtained in-house.

[5] = system: A549; assay: MTT antiproliferative assay, A549; assay type: cell-based; conditions: Homo sapiens, normoxic conditions, 72 h
Description: The human triple-negative breast cancer cell line (MDA-MB-231), colon cancer cell line (HCT-116), and lung cancer cell line (A549) used in this study were obtained from the American Type Culture Collection (ATCC). These cell lines were cultured as monolayers in Dulbecco’s Modified Eagle’s Medium (DMEM) supplemented with 10% FBS, 2 mM l-glutamine, 100 U/mL penicillin, and 100 µg/mL streptomycin sulfate. […] The cells were sub-cultured using trypsin/EDTA solution, counted with a hemocytometer, and plated on 96-well plates (5000 cells/well), allowing them to form a semi-confluent monolayer overnight. […]. DMSO (100 µL/well) was then added to dissolve the formazan crystals with shaking for 10 min, after which the absorb absorbance was read at 590 nm against no-cell blanks using a FLuo Star Optima microplate reader (BMG technologies, Ortenberg, Germany). Cell proliferation was calculated by comparing the OD values of the DMSO control wells with those of the samples, represented as % proliferation relative to the control.

[6] = system: hCA IX; assay: Stopped-flow CO2 hydrase inhibition assay, hCA IX; assay type: biochemical, human; conditions: ratio of KIs
Description: as §3

[7] = target: hCA IX; conditions: stopped-flow CO2 hydrase assay, mean of three assays; cited from earlier work
[8] = target: hCA I; conditions: stopped-flow CO2 hydrase assay, mean of three assays; cited from earlier work
[9] = target: hCA II; conditions: stopped-flow CO2 hydrase assay, mean of three assays; cited from earlier work
[10] = target: hCA XII; conditions: stopped-flow CO2 hydrase assay, mean of three assays; cited from earlier work
[11] = system: A549; assay: Annexin V-FITC/PI dual staining apoptosis assay, A549; assay type: cell-based, human; conditions: for Fold increase in overall apoptosis compared to untreated control: A549; for Early Apoptosis (Lower Right %) / Late Apoptosis (Upper Right %) / Total apoptosis: A549, treated at IC50 concentration
Description: (§4) Phosphatidylserine externalization was evaluated using the Annexin V-FITC/PI apoptosis detection kit (BD Biosciences, USA), following the manufacturer’s guidelines. […] Subsequently, the cells were re-suspended in 100 μL of binding buffer with the addition of 1 μL of FITC-Annexin V, followed by a 30-min incubation at 4 °C. After rinsing in binding buffer, the cells were resuspended in 150 μL of binding buffer with the addition of 1 μL of DAPI (1 μg/μL in PBS). Flow cytometry analysis was performed using the BD FACS Canto II flow cytometer and the results were interpreted with FlowJo7.6.4 software (Tree Star, Ashland, USA).

[12] = system: MDA-MB-231; assay: MTT antiproliferative assay, MDA-MB-231; assay type: cell-based; conditions: Homo sapiens, normoxic conditions, 72 h
Description: as §2

[13] = system: HCT-116; assay: Annexin V-FITC/PI dual staining apoptosis assay, HCT-116; assay type: cell-based, human; conditions: for Fold increase in overall apoptosis compared to untreated control: HCT-116; for Early Apoptosis (Lower Right %) / Late Apoptosis (Upper Right %) / Total apoptosis: HCT-116, treated at IC50 concentration
Description: as §4

[14] = target: hCA IV; conditions: stopped-flow CO2 hydrase assay, mean of three assays; cited from earlier work
[15] = compound 150 µM, rat liver homogenate, 37 °C; cited from earlier work
[16] = chemically induced hypoxia with CoCl2·6H2O, read-out: IC50 HCT-116 (Hypoxia)
[17] = normoxic conditions, read-out: IC50 HCT-116 (Normoxia)

IC50 Normoxia / IC50 Hypoxia [3]: 0.3
IC50 [3, 16]: 4270 ± 80 nM
IC50 [3, 17]: 1240 ± 40 nM
hCA II/hCA XII selectivity ratio [4]: 548
IC50 [5]: 4530 ± 120 nM
hCA II/hCA IX selectivity ratio [6]: 120
IC50 [12]: 1530 ± 40 nM
Structure (SMILES): N#Cc1ccc(CN(CCc2ccc(S(N)(=O)=O)cc2)C(=O)c2ccc(-c3cssc3=S)cc2)cc1 [Compound 23]
%G0-G1 [1]: 20.35%
%G2/M [1]: 32.2%
%S [1]: 23.29%
%Sub-G1 [1]: 24.16%
%G0-G1 [2]: 29.65%
%G2/M [2]: 28.09%
%S [2]: 26.28%
%Sub-G1 [2]: 15.98%
Ki [7]: 40.3 nM
Ki [8]: > 10000 nM
Ki [9]: 4830 nM
Ki [10]: 8.8 nM
Fold increase in overall apoptosis compared to untreated control [11]: 14.2 fold
Early Apoptosis (Lower Right %) [11]: 6.91%
Late Apoptosis (Upper Right %) [11]: 10.13%
Total apoptosis [11]: 17.04%
Fold increase in overall apoptosis compared to untreated control [13]: 37.2 fold
Early Apoptosis (Lower Right %) [13]: 7.69%
Late Apoptosis (Upper Right %) [13]: 21.33%
Total apoptosis [13]: 29.02%

Structure (SMILES): NS(=O)(=O)c1ccc(CCN(Cc2ccc(F)cc2)C(=O)c2ccc(-c3cssc3=S)cc2)cc1 [Compound 20]
Ki [7]: 46.3 nM
Ki [8]: 5320 nM
Ki [14]: > 10000 nM
Ki [9]: 600 nM
Ki [10]: 65.3 nM

Structure (SMILES): CN[C@@H]1C[C@H]2O[C@@](C)([C@@H]1OC)n1c3ccccc3c3c4c(c5c6ccccc6n2c5c31)C(=O)NC4 [Staurosporine, reference compound]
IC50 [5]: 5110 ± 190 nM

Structure (SMILES): NS(=O)(=O)c1ccc(CCN(Cc2ccc([N+](=O)[O-])cc2)C(=O)c2ccc(-c3cssc3=S)cc2)cc1 [Compound 25]
Ki [7]: 36.6 nM
Ki [8]: 7450 nM
Ki [14]: > 10000 nM
Ki [9]: 919 nM
Ki [10]: 32.9 nM

Structure (SMILES): CN(C)c1ccc(CN(CCc2ccc(S(N)(=O)=O)cc2)C(=O)c2ccc(-c3cssc3=S)cc2)cc1 [Compound 24]
Ki [7]: 22.7 nM
Ki [8]: 4260 nM
Ki [14]: 3410 nM
Ki [9]: 995 nM
Ki [10]: 9.5 nM

IC50 Normoxia / IC50 Hypoxia [3]: 0.6
IC50 [3, 16]: 3730 ± 70 nM
IC50 [3, 17]: 2300 ± 72 nM
hCA II/hCA XII selectivity ratio [4]: 383
IC50 [5]: 7470 ± 310 nM
hCA II/hCA IX selectivity ratio [6]: 719
IC50 [12]: 10400 ± 610 nM
Structure (SMILES): COc1cc([N+](=O)[O-])ccc1CN(CCc1ccc(S(N)(=O)=O)cc1)C(=O)c1ccc(-c2cssc2=S)cc1 [Compound 26]
%G0-G1 [1]: 27.14%
%G2/M [1]: 30.29%
%S [1]: 24.13%
%Sub-G1 [1]: 18.44%
%G0-G1 [2]: 29.49%
%G2/M [2]: 33.05%
%S [2]: 22.54%
%Sub-G1 [2]: 14.92%
Ki [7]: 4.1 nM
Ki [8]: 6700 nM
Ki [14]: 4090 nM
Ki [9]: 2950 nM
Ki [10]: 7.7 nM
Fold increase in overall apoptosis compared to untreated control [11]: 13.1 fold
Early Apoptosis (Lower Right %) [11]: 6.47%
Late Apoptosis (Upper Right %) [11]: 9.3%
Total apoptosis [11]: 15.77%
Fold increase in overall apoptosis compared to untreated control [13]: 24.5 fold
Early Apoptosis (Lower Right %) [13]: 4.13%
Late Apoptosis (Upper Right %) [13]: 14.96%
Total apoptosis [13]: 19.09%
H2S release half-life t/2 [15]: 4.9 min

Structure (SMILES): NS(=O)(=O)c1ccc(CCN(Cc2ccccc2)C(=O)c2ccc(-c3cssc3=S)cc2)cc1 [Compound 19]
Ki [7]: 43 nM
Ki [8]: 771 nM
Ki [14]: 4340 nM
Ki [9]: 480 nM
Ki [10]: 9.7 nM
